According to the supplement of paper PMC10307832:

Key:
Experiment in all cases: relative viability (nuclei count vs DMSO), 5 days (fraction); higher = more cells survive
[1] = compound: C1=CC2=NC=CN=C2C=C1/C=C/3\C(=O)NC(=O)S3 + CC(=O)Nc1cccc(-n2c(=O)n(C3CC3)c(=O)c3c(Nc4ccc(I)cc4F)n(C)c(=O)c(C)c32)c1 [Trametinib] (partner 0.02 µM)
Method in brief: (§1)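 Dosing by pin tool came one day after lung cancer cell lines were seeded in 1536-well plates, using either one drug or a fixed anchor-drug dose plus five library-drug doses (not always all listed) in √10 steps. After 5 days, nuclei were counted on 4× images. Relative viability is treated-well nuclei count divided by vehicle-well nuclei count, and values are medians of duplicate plates.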

[2] = compound: C1=CC2=NC=CN=C2C=C1/C=C/3\C(=O)NC(=O)S3 + CCNC(=O)c1noc(-c2cc(C(C)C)c(O)cc2O)c1-c1ccc(CN2CCOCC2)cc1 [Luminespib] (partner 0.01 µM)
Method in brief: as §1

BGJ398 + Pictilisib = compound: CCN1CCN(c2ccc(Nc3cc(N(C)C(=O)Nc4c(Cl)c(OC)cc(OC)c4Cl)ncn3)cc2)CC1 [BGJ398] + CS(=O)(=O)N1CCN(Cc2cc3nc(-c4cccc5[nH]ncc45)nc(N4CCOCC4)c3s2)CC1 [Pictilisib] (partner 1 µM)
Method in brief: as §1

BGJ398 + Olaparib = compound: CCN1CCN(c2ccc(Nc3cc(N(C)C(=O)Nc4c(Cl)c(OC)cc(OC)c4Cl)ncn3)cc2)CC1 [BGJ398] + O=C(c1cc(Cc2n[nH]c(=O)c3ccccc23)ccc1F)N1CCN(C(=O)C2CC2)CC1 [Olaparib] (partner 8 µM)
Method in brief: as §1

Cell Line	relative viability ([1]; first compound 0.02 µM)	relative viability ([1]; first compound 0.06325 µM)	relative viability ([1]; first compound 0.2 µM)	relative viability ([1]; first compound 0.6325 µM)	relative viability ([1]; first compound 2 µM)	relative viability ([2]; first compound 0.02 µM)	relative viability ([2]; first compound 0.06325 µM)	relative viability ([2]; first compound 0.2 µM)	relative viability ([2]; first compound 0.6325 µM)	relative viability ([2]; first compound 2 µM)	relative viability (BGJ398 + Pictilisib; first compound 0.01 µM)	relative viability (BGJ398 + Pictilisib; first compound 0.03162 µM)	relative viability (BGJ398 + Pictilisib; first compound 0.1 µM)	relative viability (BGJ398 + Pictilisib; first compound 0.3162 µM)	relative viability (BGJ398 + Pictilisib; first compound 1 µM)	relative viability (BGJ398 + Olaparib; first compound 0.01 µM)	relative viability (BGJ398 + Olaparib; first compound 0.03162 µM)	relative viability (BGJ398 + Olaparib; first compound 0.1 µM)	relative viability (BGJ398 + Olaparib; first compound 0.3162 µM)	relative viability (BGJ398 + Olaparib; first compound 1 µM)
NCI-H23	0.346	0.489	0.361	0.394	0.223	0.254	0.219	0.219	0.217	0.184	0.545	0.487	0.477	0.461	0.411	0.333	0.297	0.303	0.371	0.268
NCI-H322M	0.535	0.507	0.469	0.503	0.383	0.95	0.76	0.707	0.8	0.522	0.511	0.415	0.508	0.432	0.515	0.801	0.73	0.761	0.758	0.815
NCI-H358	0.145	0.122	0.139	0.126	0.11	0.265	0.35	0.347	0.224	0.182	0.305	0.403	0.358	0.315	0.332	0.744	0.622	0.619	0.698	0.584
NCI-H441	0.409	0.52	0.451	0.343	0.305	0.294	0.334	0.332	0.364	0.255	0.416	0.496	0.558	0.54	0.487		0.619	0.483	0.555	0.536
NCI-H460	0.0917	0.0921	0.223	0.11	0.0876	0.0317	0.0415	0.0283	0.0303	0.0362	0.343	0.435	0.393	0.408	0.343	0.39	0.42	0.428	0.414	0.381
NCI-H520	0.648	0.65	0.812	0.664	0.62	0.204	0.22	0.257	0.191	0.248	0.239	0.257	0.209	0.169	0.194	0.265	0.355	0.314	0.202	0.238
NCI-H596	0.764	0.771	0.794	0.887	0.722	1.13	1.13	1.15	0.991	0.939	0.367	0.416	0.355	0.389	0.321	0.674	0.648	0.645	0.626	0.667
NCI-H647	0.459	0.52	0.545	0.444	0.389	0.173	0.196	0.168	0.127	0.102	0.406	0.511	0.38	0.401	0.29	0.51	0.643	0.694	0.521	0.603
NCI-H650	0.971	0.927	1.3	0.994	0.69	0.719	0.872	0.755	0.709	0.627	0.87	0.943	0.867	0.858	0.868	0.358	0.413	0.377	0.375	0.365
NCI-H661	0.709	0.557	0.606	0.526	0.618	0.958	0.961	0.937	0.943	1.05	0.361	0.46	0.388	0.382	0.348	0.7	0.737	0.822	0.736	0.727
NCI-H727	0.386	0.369	0.407	0.397	0.29	0.427	0.496	0.403	0.444	0.265	0.455	0.504	0.176	0.316	0.293	0.707	0.629	0.717	0.653	0.641
NCI-H838	0.537	0.47	0.555	0.454	0.366	0.295	0.446	0.267	0.26	0.324	0.436	0.393	0.417	0.338	0.277	0.731	0.754	0.749	0.741	0.667
NCI-H1355	0.385	0.432	0.462	0.413	0.382	0.687	0.516	0.751	0.631	0.608	0.396	0.477	0.5	0.496	0.271	0.714	0.769	0.736	0.729	0.7
NCI-H1395	1.01	0.974	1.06	0.978	1.02	0.807	0.693	0.719	0.607	0.794	0.664	0.674	0.568	0.357	0.364	0.441	0.426	0.434	0.428	0.409
NCI-H1437	0.475	0.448	0.534	0.45	0.329	1.09	1.14	1.05	1.08	1.12	0.375	0.514	0.439	0.494	0.561	0.687	0.629	0.587	0.607	0.666
NCI-H1650	0.541	0.595	0.686	0.559	0.63	0.221	0.194	0.209	0.209	0.171	0.497	0.394	0.416	0.153	0.316	0.81	0.838	0.786	0.826	0.811

Cell Line	relative viability ([1]; first compound 0.02 µM)	relative viability ([1]; first compound 0.06325 µM)	relative viability ([1]; first compound 0.2 µM)	relative viability ([1]; first compound 0.6325 µM)	relative viability ([1]; first compound 2 µM)	relative viability ([2]; first compound 0.02 µM)	relative viability ([2]; first compound 0.06325 µM)	relative viability ([2]; first compound 0.2 µM)	relative viability ([2]; first compound 0.6325 µM)	relative viability ([2]; first compound 2 µM)	relative viability (BGJ398 + Pictilisib; first compound 0.01 µM)	relative viability (BGJ398 + Pictilisib; first compound 0.03162 µM)	relative viability (BGJ398 + Pictilisib; first compound 0.1 µM)	relative viability (BGJ398 + Pictilisib; first compound 0.3162 µM)	relative viability (BGJ398 + Pictilisib; first compound 1 µM)	relative viability (BGJ398 + Olaparib; first compound 0.01 µM)	relative viability (BGJ398 + Olaparib; first compound 0.03162 µM)	relative viability (BGJ398 + Olaparib; first compound 0.1 µM)	relative viability (BGJ398 + Olaparib; first compound 0.3162 µM)	relative viability (BGJ398 + Olaparib; first compound 1 µM)
NCI-H1651	0.821	0.642	0.86	0.849	0.725	0.848	0.842	0.77	0.753	0.842	0.46	0.625	0.574	0.507	0.546	0.183	0.169	0.188	0.165	0.162
NCI-H1666	0.826	0.813	0.87	0.958	0.696	1.04	0.994	1.05	0.965	1.03	0.511	0.461	0.536	0.374	0.329	0.759	0.77	0.81	0.725	0.679
NCI-H1734	0.645		0.802	0.625	0.653	0.245	0.217	0.182	0.194	0.257	0.421	0.493	0.451	0.407	0.476	0.504	0.622	0.627	0.609	0.607
NCI-H1755	0.719	0.642	0.823	0.772	0.764	0.433	0.329	0.606	0.244	0.352	0.443	0.446	0.361	0.349	0.285	0.813	0.906	0.904	0.855	0.912
NCI-H1792	0.363		0.542	0.386	0.248	0.418	0.29	0.453	0.436	0.374	0.229	0.32	0.26	0.238	0.138	0.494	0.351	0.281	0.607	0.282
NCI-H1793	0.411	0.334	0.434	0.421	0.529	0.201	0.188	0.169	0.169	0.174	0.296		0.265	0.203	0.196	0.828	0.721	1.02	0.824	0.739
NCI-H1915	0.289	0.305	0.323	0.301	0.291	0.771	0.747	0.815	0.618	0.754	0.913	0.904	0.906	1.03	0.97	0.231	0.285	0.252	0.256	0.246
NCI-H1944	0.394	0.384	0.395	0.38	0.394	0.667	0.515	0.75	0.695	0.656	0.36	0.348	0.323	0.333	0.311	0.432	0.416	0.425	0.385	0.445
NCI-H1975	0.273	0.361	0.355	0.33	0.241	0.289	0.117	0.202	0.149	0.174	0.296	0.296	0.269	0.321	0.252	0.809	0.856	0.887	0.825	0.781
NCI-H1993	0.516	0.527	0.504	0.452	0.506	0.712	0.863	0.854	0.798	0.557	0.744	0.766	0.722	0.82	0.685	1.02	1.08	1.01	1.02	0.997
NCI-H2009	0.256	0.356	0.284	0.252	0.232	0.973	0.995	1.04	1.05	1.05	0.803	0.955	0.731	0.842	0.847	0.614	0.759	0.697	0.718	0.682
NCI-H2023	0.511	0.539	0.516	0.428	0.427	0.701	0.713	0.773	0.757	0.745	0.226	0.219	0.173	0.244	0.16	0.486	0.465	0.513	0.463	0.503
NCI-H2085	0.477	0.427	0.56	0.511	0.51	0.489	0.44	0.435	0.452	0.428	0.456	0.44	0.372	0.508	0.394	0.759	0.773	0.711	0.693	0.796
NCI-H2087	0.178	0.188	0.17	0.179	0.233	0.169	0.208	0.227	0.173	0.203	0.669	0.994	0.966	0.85	1.08	0.46	0.744	0.574	0.609	0.613
NCI-H2126	0.481	0.591	0.538	0.533	0.48	0.86	1.12	0.866	0.83	0.601	0.528	0.461	0.52	0.495	0.418	0.953	0.864	0.964	0.865	0.918
NCI-H2170	0.866	1.01	1.03	0.868	0.986	0.757	0.942	0.79	0.525	0.717	0.348	0.279	0.311	0.287	0.288	0.605	0.584	0.633	0.57	0.553
